Assay results as given in US5952296A, “Method of using relaxin as therapeutic or preventing agent” (priority 1993, dated 1999).
Entries after “also recorded” stand apart in the source; their conditions may differ. No end group written: not given here.

Legend:
[1] = tested on: mesenteric artery of spontaneously hypertensive rats; conditions: two days infusion; cited from earlier work
[2] = tested on: isolated serosal rat and guinea pig MCs and rat mesenteric MCs; experiment: Mast cell histamine release, degranulation and intracellular Ca2+; assay type: cell-based; conditions: for calcium-ionophore-induced and anaphylactic histamine release: mast cells stimulated by ionophore or sensitized by allergen
From the text: 1-c Mast cells (MCs) are known to produce and release vasoactive substances. It has therefore been investigated whether RLX also exerts its vasodilatory action by influencing MC function. […] This effect is mediated by a stimulation of NO production. In fact, the RLX-induced depression of histamine release evoked by calcium ionophore was prevented by MeArg and potentiated by SOD. Moreover, RLX blunted the rise in the intracellular Ca^2+ levels evoked by calcium ionophore in a concentration-related fashion (41% decrease with 10 ng/mL RLX and 97% decrease with 100 ng/mL RLX). From these findings, it emerges that the vasodilatory action of RLX is not due to histamine release by MCs but, rather, to production of the vasodilatory agent NO, in keeping with its effect in the coronary system. The above results are summarized in the diagrams A and B in FIG. 4.
The degree of inhibition was the function of the dose of relaxin being used.

[3] = tested on: BASM cells; experiment: Bovine aorta smooth muscle (BASM) cells cultured in vitro: actin cytoskeleton and intracellular cGMP; assay type: cell-based; conditions: for increase in intracellular cGMP levels: BASM cells
From the text: 1-b Smooth muscle cells of the vascular wall obtained from bovine aorta (BASM) and cultured in vitro are a suitable in vitro model for understanding the mode of action of RLX on blood vessels.
[…] RLX caused a striking concentration-related increase in intracellular cGMP levels (400% and 900% over the values of the untreated cultures).

[4] = tested on: guinea pig hearts, isolated and perfused in vitro; experiment: Coronary flow in isolated guinea pig hearts perfused in a Langendorff apparatus
Protocol: (§1) 1-a The coronary system was deemed a suitable model for studying the influence of RLX on dilation of blood vessels. Rat and guinea pig hearts, isolated and perfused in vitro in a Langendorff apparatus, were used to evaluate whether RLX causes changes in the coronary flow. After 30 minutes stabilization, in some experiments RLX (30 ng/ml) was added to the perfusion fluid and perfusion lasted for 20 minutes. In other experiments,RLX (30 ng/ml) was injected as a bolus into the aortic cannula. The perfusates were collected and the coronary flow determined. […] The percentage of basal flow variation is depicted versus time. In these diagrams (as well as in the next ones) values are expressed as mean ± SE (standard error). Statistic analyses were done calculating the Student's test (P), whose value is shown in the diagrams.
To clarify the mechanisms of action of RLX on dilation of coronary vessels, nitric oxide (NO) production and histamine release were assayed in the perfused guinea pig hearts. NO, which is known to be a powerful vasodilatory agent, was measured by determination of nitrites (stable end-products of NO metabolism) in the perfusates. […]

[5] = tested on: rat hearts, isolated and perfused in vitro; experiment: Coronary flow in isolated rat hearts perfused in a Langendorff apparatus; conditions: RLX 30 ng/ml in perfusion fluid for 20 minutes or as bolus into the aortic cannula; rat heart (FIG. 1A)
Protocol: as §1

[6] = tested on: male rats; experiment: Plasma hemostasis factors, circulating platelets and megacaryocytes in male rats injected intraperitoneally with RLX; assay type: in vivo, rat
Protocol: A second series of experiments was performed in male rats injected intraperitoneally with RLX and sacrificed 20 minutes later. Before sacrifice, blood and plasma samples were collected for studying plasma hemostasis factors and number of circulating platelets; upon sacrifice, spleen specimens were taken for studying the morphology of megacaryocytes.

[7] = tested on: heart atria; conditions: Osheroff et al.; cited from earlier work
[8] = Blood osmolality and sodium concentration in rats after RLX; assay type: in vivo, rat; conditions: rats after RLX (from 142±4 before)
[9] = tested on: perfused guinea pig hearts; experiment: Nitric oxide (nitrite) production and histamine release in perfused guinea pig hearts
Protocol: To clarify the mechanisms of action of RLX on dilation of coronary vessels, nitric oxide (NO) production and histamine release were assayed in the perfused guinea pig hearts. NO, which is known to be a powerful vasodilatory agent, was measured by determination of nitrites (stable end-products of NO metabolism) in the perfusates. In some experiments, N^W -monomethyl L-arginine (MeArg), a NO-synthase inhibitor, was added to the perfusion fluid before giving RLX as a bolus; in other experiments,guinea pigs were pretreated with E.coli lipopolysaccharide (LPS), an inducer of NO-synthase activity before heart isolation and perfusion. […] This was further confirmed by the experiments with MeArg and LPS, drugs that blunted and enhanced the RLX-induced increase in the coronary flow, respectively (FIG. 2).

[10] = tested on: deep artery of the penis; experiment: Blood flow in the deep artery of the penis by echo-doppler after injection into the cavernous bodies; assay type: in vivo, human
Protocol: 1-d The blood flow in the penis is influenced by local NO production. Based on the ability of RLX to stimulate NO synthesis, the effect of the peptide on the blood flow in the deep artery of the penis was investigated. RLX (sterilized by microfiltration) was injected into the cavernous bodies of 4 human normal volunteers at a dose of 10 ng, and the blood flow measured by an echo-doppler Acuson 128, 1-6 minutes after the injection. […] In FIG. 5 the echo-doppler images are reported, showing the flow under normal conditions (diagram A), 1 min. after RLX injection (diagram B) and 5 min. after RLX injection (diagram C).

[11] = Cholesterol and triglycerides in peripheral blood serum; assay type: in vivo; conditions: peripheral blood serum after RLX administration
[12] = tested on: atrial myocardiocytes; experiment: ANP secretion from atrial myocardiocytes of rats after intraperitoneal RLX; assay type: in vivo, rat
Protocol: 3-a ANP secretion was studied in rats following intraperitoneal administration of 10 μg RLX. It is known that atrial myocardiocytes have an endocrine function, being able to synthesize and release a peptide, called atrial natriuretic peptide (ANP) that, besides its firstly recognized effect in stimulating natriuresis, has other properties such as a negative action on blood pressure due to a decrease in the vascular tone and a shift of the plasma fluid in the interstitial compartment. A possible relationship has therefore been searched for between RLX and ANP by evaluating the amount of immunoreactive ANP and the ultrastructural features of atrial myocardiocytes of rats upon RLX treatment. […] No appreciable changes were found in the extension of the ergastoplasm and Golgi apparatus. […] Determinations of ANP content in rat atria homogenates by RIA before and after in vivo administration of RLX are in agreement with the EM findings.

[13] = tested on: isolated platelets from human volunteers and rabbits; experiment: Aggregation of isolated platelets incubated with RLX and stimulated with proaggregants; assay type: cell-based, human and rabbit
Protocol: A first series of experiments was carried out on isolated platelets from human volunteers and rabbits, incubated with RLX and then stimulated with proaggregants.
This effect was concentration-relatedand attained a maximum of 80% inhibition with 100 ng/mL RLX.

**Q.** Which “vasoconstrictive effects of norepinephrine and vasopressin” value [1] does the source give for “rat RLX: rat relaxin infused for two days in a cited 1989 study (Relaxin B chain RVSEEWMDQVIQVCGRGYARAWIEVCGASVGRLAL; Relaxin A chain QSGALLSEQCCHIGCTRRSIAKLC; ends and bridges not checked; cysteine pairing not given here; UniProt P01347 23-57; P01347 163-186, looked up)” here?
**A.** blunted

**Q.** Which “effect on the RLX-induced depression of histamine release evoked by calcium ionophore” value ([2]; mast cells) does the source give for CNC(=N)NCCC[C@H](N)C(=O)O [MeArg, N^W -monomethyl L-arginine, reference compound] here?
**A.** prevented

**Q.** And the “effect on the RLX-induced increase in cGMP” value ([3]; pretreatment of BASM cells)?
**A.** depression

**Q.** What about the “effect on the RLX-induced increase in the coronary flow” value ([4]; MeArg added to perfusion fluid before RLX bolus, LPS pretreatment of guinea pigs before heart isolation) of the same compound?
**A.** blunted

**Q.** For relaxin [RLX], which coronary flow [5] is on record?
**A.** increases significantly

**Q.** And the “F 1 + 2” value ([6]; rat plasma, RLX-Treated)?
**A.** 0.028 ± 0.01 nM/mL

**Q.** What about the PT ([6]; rat plasma, RLX-Treated) of the same compound?
**A.** 15.1 ± 0.5 s

**Q.** And the aPTT ([6]; rat plasma, RLX-Treated)?
**A.** 19 ± 2.5 s

**Q.** What about the “tPA Ag” value ([6]; rat plasma, RLX-Treated) of the same compound?
**A.** 0.52 ± 0.1 ng/mL

**Q.** What about the Fibrinogen ([6]; rat plasma, RLX-Treated, 20 minutes after intraperitoneal injection) of the same compound?
**A.** 185 ± 26 mg/dL

**Q.** What about the tPA activity ([6]; rat plasma, RLX-Treated, P < 0.001) of the same compound?
**A.** 0.37 ± 0.03 U/mL

**Q.** And the PAI-1 activity ([6]; rat plasma, RLX-Treated, P < 0.05)?
**A.** 11.7 ± 0.7 U/mL

**Q.** And the “coagulation factors such as fibrinogen and prothrombin fragments F1+2” value ([6]; rats)?
**A.** slight decrease

**Q.** And the “plasma levels of tPA and PAI-1” value ([6]; rats)?
**A.** significant, concentration-dependant increase

**Q.** What about the “number of circulating platelets” value ([6]; rats, in vivo) of the same compound?
**A.** reduction in the number of circulating platelets

**Q.** What about the “binding to heart atria” value [7] of the same compound?
**A.** binding of RLX to heart atria

**Q.** What about the “rhythm and contractions of the in vitro isolated atria” value [7] of the same compound?
**A.** increase of the rhythm and contractions

**Q.** What about the sodium concentration [8] of the same compound?
**A.** 136±2 mEq/1

**Q.** And the “decrease of the rise in intracellular Ca2+ levels evoked by calcium ionophore” value ([2]; 10 ng/mL RLX, mast cells)?
**A.** 41%

**Q.** And the “decrease of the rise in intracellular Ca2+ levels evoked by calcium ionophore” value ([2]; 100 ng/mL RLX, mast cells)?
**A.** 97%

**Q.** And the MC degranulation ([2]; mast cells)?
**A.** inhibits

**Q.** What about the “calcium-ionophore-induced and anaphylactic histamine release” value [2] of the same compound?
**A.** inhibits

**Q.** What about the “calcium-ionophore-induced and anaphylactic histamine release” value ([2]; listed as relaxin) of the same compound?
**A.** inhibit or, depending on the dose, totally suppress; also recorded: greatly inhibiting

**Q.** And the “basal liberation of histamine by mastocytes” value ([2]; unstimulated mastocytes)?
**A.** no effect whatsoever

**Q.** What about the “amount of histamine in the perfusates” value [9] of the same compound?
**A.** significantly reduced

**Q.** And the “nitrite amounts in the perfusates (NO production)” value ([9]; versus basal value)?
**A.** two-fold increase over the basal value

**Q.** What about the “increase in intracellular cGMP levels” value ([3]; 10 ng/mL RLX for 1 hour) of the same compound?
**A.** 400 % over the values of the untreated cultures

**Q.** And the “increase in intracellular cGMP levels” value ([3]; 100 ng/mL RLX for 1 hour)?
**A.** 900 % over the values of the untreated cultures

**Q.** What about the “actin cytoskeleton (immunocytochemistry with anti-actin antibodies)” value ([3]; BASM cells incubated for 4 hours with 100 ng/mL RLX) of the same compound?
**A.** induces changes in the actin cytoskeleton

**Q.** What about the “blood flow in the deep artery of the penis” value ([10]; 10 ng into the cavernous bodies, 4 human normal volunteers, 1-6 minutes after injection, versus basal flow) of the same compound?
**A.** striking increase

**Q.** And the erection ([10]; two subjects, 5-10 min. after RLX injection)?
**A.** erection was also observed

**Q.** And the “reduction of cholesterol concentration” value [11]?
**A.** up to 38%

**Q.** And the “reduction of triglycerides concentration” value [11]?
**A.** ≤ 55%

**Q.** And the “amount of immunoreactive ANP and number of ANP-storing granules in atrial myocardiocytes” value ([12]; rats, 10 μg RLX intraperitoneal, twenty minutes after administration)?
**A.** strongly decreased

**Q.** And the “secretion of ANP from the atriocytes” value ([12]; summary statement)?
**A.** inhibit or, depending on the dose, totally suppress

**Q.** What about the “maximum inhibition of platelet aggregation induced by proaggregants” value ([13]; 100 ng/mL RLX) of the same compound?
**A.** 80%

**Q.** And the “thromboxane production in platelets” value ([13]; FIG. 7)?
**A.** inhibition of thromboxane production

**Q.** What about the “endogenous NO synthesis in platelets” value ([13]; FIG. 8) of the same compound?
**A.** stimulation of endogenous NO synthesis

**Q.** What about the “intracellular cGMP in platelets” value ([13]; FIG. 9) of the same compound?
**A.** rise in intracellular cGMP

**Q.** And the “cytosolic Ca2+ in platelets” value ([13]; FIG. 10)?
**A.** decrease of cytosolic Ca^2+

**Q.** What about the “platelet ultrastructure during aggregation” value ([13]; ultrastructural examination) of the same compound?
**A.** hinders the conformational modifications and granule exocytosis

**Q.** And the coronary flow ([4]; RLX 30 ng/ml in perfusion fluid for 20 minutes or as bolus into the aortic cannula, guinea pig heart (FIG. 1B))?
**A.** increases significantly
